Test results as given in patent US11999699B2, “Substituted pyrazole amides” (GRUENENTHAL GMBH, priority 2021, dated 2024).

Molecular target: T1, human NaV1.8 (Homo sapiens, UniProt Q9Y5Y9)
T1 construct: The following NaV1.8 recombinant cell line was used for recordings: HEK-NaV1.8 (NM 006514.1); expressed in transfected cells; host or cells: HEK (recombinant cell line HEK-NaV1.8)
Assay: Electrophysiology: automated whole-cell voltage-clamp (patch clamp, Qube384) recordings of sodium currents in HEK-NaV1.8 cells
Format: cell-based
Conditions: potency data either taken from inactivated or resting state, read-out: Potency category (human NaV1.8 IC50)
Summary of the method: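 Automated whole-cell patch clamp at room temperature on HEK cells expressing human NaV1.8, with 0.3% DMSO vehicle controls. State-dependent protocol from −120 mV tested resting (P1) and half-inactivated (P2, 4 s at V1/2) channels, plus 40-pulse trains at 10 and 20 Hz. Values after ~12 min compound exposure were normalised to baseline and corrected for vehicle run-down; IC50 from a 4-parameter logistic fit, taken from inactivated or resting state.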

T1 sequence (Q9Y5Y9 whole entry): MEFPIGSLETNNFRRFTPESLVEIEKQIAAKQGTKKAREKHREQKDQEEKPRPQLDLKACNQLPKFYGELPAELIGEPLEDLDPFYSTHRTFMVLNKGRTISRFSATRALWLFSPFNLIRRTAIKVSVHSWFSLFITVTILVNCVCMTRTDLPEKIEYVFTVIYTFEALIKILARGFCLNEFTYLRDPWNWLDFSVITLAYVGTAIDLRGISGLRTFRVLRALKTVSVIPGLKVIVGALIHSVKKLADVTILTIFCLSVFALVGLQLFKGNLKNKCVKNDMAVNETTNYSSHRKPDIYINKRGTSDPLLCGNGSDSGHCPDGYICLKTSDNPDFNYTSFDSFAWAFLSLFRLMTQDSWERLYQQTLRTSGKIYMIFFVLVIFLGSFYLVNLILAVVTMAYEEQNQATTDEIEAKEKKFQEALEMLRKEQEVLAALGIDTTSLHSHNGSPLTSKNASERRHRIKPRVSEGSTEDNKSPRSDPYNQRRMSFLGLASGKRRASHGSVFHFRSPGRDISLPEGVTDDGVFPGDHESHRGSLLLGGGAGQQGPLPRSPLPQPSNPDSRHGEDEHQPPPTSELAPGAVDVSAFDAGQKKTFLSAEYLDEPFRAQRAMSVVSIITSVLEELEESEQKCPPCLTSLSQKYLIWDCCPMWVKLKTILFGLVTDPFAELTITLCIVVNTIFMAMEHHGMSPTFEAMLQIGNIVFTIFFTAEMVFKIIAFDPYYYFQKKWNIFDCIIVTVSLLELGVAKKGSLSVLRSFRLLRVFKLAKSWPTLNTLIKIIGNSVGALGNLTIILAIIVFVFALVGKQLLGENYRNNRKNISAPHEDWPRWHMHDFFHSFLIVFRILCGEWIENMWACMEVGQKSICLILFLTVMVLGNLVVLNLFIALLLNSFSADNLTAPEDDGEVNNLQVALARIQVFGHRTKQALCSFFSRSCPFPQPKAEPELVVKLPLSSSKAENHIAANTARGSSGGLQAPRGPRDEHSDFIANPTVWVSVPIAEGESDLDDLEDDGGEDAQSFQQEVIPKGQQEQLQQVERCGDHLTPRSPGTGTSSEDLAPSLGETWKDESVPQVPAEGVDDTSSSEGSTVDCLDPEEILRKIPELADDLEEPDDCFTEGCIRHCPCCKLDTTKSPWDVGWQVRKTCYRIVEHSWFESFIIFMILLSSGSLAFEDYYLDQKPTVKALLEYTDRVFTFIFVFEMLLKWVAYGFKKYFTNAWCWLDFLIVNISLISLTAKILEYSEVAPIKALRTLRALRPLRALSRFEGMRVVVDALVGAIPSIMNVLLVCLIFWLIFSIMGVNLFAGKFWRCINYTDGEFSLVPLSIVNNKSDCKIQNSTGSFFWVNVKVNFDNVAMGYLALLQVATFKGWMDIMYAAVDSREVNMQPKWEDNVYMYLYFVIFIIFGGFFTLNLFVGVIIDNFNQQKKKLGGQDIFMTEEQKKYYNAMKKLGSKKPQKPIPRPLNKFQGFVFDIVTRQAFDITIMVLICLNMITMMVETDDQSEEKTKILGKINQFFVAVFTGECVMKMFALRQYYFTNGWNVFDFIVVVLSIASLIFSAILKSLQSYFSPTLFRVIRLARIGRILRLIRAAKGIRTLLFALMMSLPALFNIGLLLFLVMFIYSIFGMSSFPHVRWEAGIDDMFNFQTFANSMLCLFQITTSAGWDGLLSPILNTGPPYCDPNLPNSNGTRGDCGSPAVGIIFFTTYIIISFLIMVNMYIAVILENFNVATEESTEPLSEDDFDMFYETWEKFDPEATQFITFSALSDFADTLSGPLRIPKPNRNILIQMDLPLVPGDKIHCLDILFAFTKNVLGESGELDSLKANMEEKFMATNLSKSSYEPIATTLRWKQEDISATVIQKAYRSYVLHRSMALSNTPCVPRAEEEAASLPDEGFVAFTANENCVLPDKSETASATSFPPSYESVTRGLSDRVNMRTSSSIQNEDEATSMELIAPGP
T1 sequence (Q9NY72 23-215 partner): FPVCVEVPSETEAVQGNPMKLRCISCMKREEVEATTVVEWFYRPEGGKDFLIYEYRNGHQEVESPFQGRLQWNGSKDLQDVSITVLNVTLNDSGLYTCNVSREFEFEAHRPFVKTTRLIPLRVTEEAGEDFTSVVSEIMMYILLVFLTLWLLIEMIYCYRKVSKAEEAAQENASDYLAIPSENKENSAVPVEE

| SMILES | IC50 |
| --- | --- |
| Cc1nn(CC2CCC(F)(F)C2)c(C(=O)Nc2cccc(S(N)(=O)=O)c2)c1OC(F)(F)F (centres unmarked) [SC-304, 1-((3,3-difluorocyclopentyl)methyl)-3-methyl-N-(3-sulfamoyiphenyl)-4-(trifluoromethoxy)-1H-pyrazole-5-carboxamide] | 100 to 1000 nM |
| COc1cc(C(=O)Nc2cccc(S(C)(=O)=O)c2)n(CC2CCCCC2)n1 [SC-17, 2-(cyclohexylmethyl)-5-methoxy-N-(3-methylsulfonylphenyl)pyrazole-3-carboxamide] | 100 to 1000 nM |
| CS(=O)(=O)c1cccc(NC(=O)c2ccnn2CC2CCCCC2)c1 [SC-226, 1-(cyclohexylmethyl)-N-(3-(methyIsulfonyl)phenyl)-1H-pyrazole-5-carboxamide] | 1000 to 10000 nM |
| NC(=O)c1cc(NC(=O)c2c(C(F)(F)F)c(C3CC3)nn2CC2CCCCO2)ccc1F (centres unmarked) [SC-140, N-(3-carbamoyl-4-fluorophenyl)-3-cyclopropyl-1-((tetrahydro-2H-pyran-2-yl)methyl)-4-(trifluoromethyl)-1H-pyrazole-5-carboxamide] | ≤ 100 nM |
| CC1(Cn2ncc(C(F)(F)F)c2C(=O)Nc2cccc(S(C)(=O)=O)c2)CCCCC1 [SC-232, 1-((1-methylcyclohexyl)methyl)-N-(3-(methylsulfonyl)phenyl)-4-(trifluoromethyl)-1H-pyrazole-5-carboxamide] | ≤ 100 nM |
| Cc1c(C(C)(F)F)nn(CC2(C)CCC(F)(F)C2)c1C(=O)Nc1ccnc(C(N)=O)c1 (single isomer, unassigned) [SC-214b] | ≤ 100 nM |
| Cc1nn(CC2CCC(F)(F)CC2)c(C(=O)Nc2cccc(S(N)(=O)=O)c2)c1Cl [SC-236, 4-chloro-1-((4,4-difluorocyclohexyl)methyl)-3-methyl-N-(3-sulfamoylphenyl)-1H-pyrazole-5-carboxamide] | ≤ 100 nM |
| CS(=O)(=O)c1cc(NC(=O)c2c(C(F)(F)F)c(C3CC3)nn2C[C@@H]2CCO[C@@H]2C(F)(F)F)ccn1 (single isomer, unassigned) [SC-150b] | ≤ 100 nM |
| CS(=O)(=O)c1cccc(NC(=O)c2cc(C(F)F)nn2CC2CCCCC2)c1 [SC-09, 1-(cyclohexylmethyl)-3-(difluoromethyl)-N-(3-(methylsulfonyl)phenyl)-1H-pyrazole-5-carboxamide] | 100 to 1000 nM |
| CS(=O)(=O)c1cc(NC(=O)c2c(C(F)(F)F)c(OC(F)F)nn2CC2CCC(F)(F)C2)ccn1 (racemic) [SC-293, 1-((3,3-difluorocyclopentyl)methyl)-3-(difluoromethoxy)-N-(2-(methylsulfonyl)pyridin-4-yl)-4-(trifluoromethyl)-1H-pyrazole-5-carboxamide] | ≤ 100 nM |
| COc1nn(CC2CCC(F)(F)C2)c(C(=O)Nc2ccnc(S(C)(=O)=O)c2)c1C(F)(F)F (centres unmarked) [SC-225, 1-((3,3-difluorocyclopentyl)methyl)-3-methoxy-N-(2-(methylsulfonyl)pyridin-4-yl)-4-(trifluoromethyl)-1H-pyrazole-5-carboxamide] | ≤ 100 nM |
| COc1c(C(C)(F)F)nn(CC2CCC(F)(F)C2)c1C(=O)Nc1ccnc(C(N)=O)c1 (single isomer, unassigned) [SC-271a] | 100 to 1000 nM |
| NC(=O)c1cc(NC(=O)c2c(C(F)(F)F)c(C(F)F)nn2CC2CCC(F)(F)C2)ccn1 (centres unmarked) [SC-325, 4-(1-((3,3-difluorocyclopentyl)methyl)-3-(difluoromethyl)-4-(trifluoromethyl)-1H-pyrazole-5-carboxamido)picolinamide] | ≤ 100 nM |
| NC(=O)c1cc(NC(=O)c2c(C(F)F)c(C3CC3)nn2CC2CCC(F)(F)C2)ccn1 (centres unmarked) [SC-216, 4-(3-cyclopropyl-1-((3,3-difluorocyclopentyl)methyl)-4-(difluoromethyl)-1H-pyrazole-5-carboxamido)picolinamide] | ≤ 100 nM |
| CC(C)Oc1nn(CC2CCC(F)(F)C2)c(C(=O)Nc2ccnc(C(N)=O)c2)c1C(F)(F)F (centres unmarked) [SC-155, 4-(1-((3,3-difluorocyclopentyl)methyl)-3-isopropoxy-4-(trifluoromethyl)-1H-pyrazole-5-carboxamido)picolinamide] | ≤ 100 nM |
| Cc1c(C(F)(F)F)nn(CC2CCC(F)(F)C2)c1C(=O)Nc1ccnc(C(N)=O)c1 (single isomer, unassigned) [SC-118b] | ≤ 100 nM |
| Cc1c(C(C)(F)F)nn(CC2C[C@H]2C(F)F)c1C(=O)Nc1ccnc(S(C)(=O)=O)c1 (stereo in doubt) [SC-207, 3-(1,1-difluoroethyl)-1-((2-(difluoromethyl)cyclopropyl)methyl)-4-methyl-N-(2-(methylsulfonyl)pyridin-4-yl)-1H-pyrazole-5-carboxamide] | 100 to 1000 nM |
| CS(=O)(=O)c1cccc(NC(=O)c2c(F)cnn2CC2CCCCC2)c1 [SC-08, 2-(cyclohexylmethyl)-4-fluoro-N-(3-methylsulfonylphenyl)pyrazole-3-carboxamide] | 1000 to 10000 nM |
| Cc1c(C(C)(F)F)nn(C[C@]2(C)CCCO2)c1C(=O)Nc1ccnc(S(N)(=O)=O)c1 (single isomer, unassigned) [SC-319a] | 100 to 1000 nM |
| Cc1c(C(F)(F)C(F)(F)F)nn(CC2CCC2(F)F)c1C(=O)Nc1ccnc(C(N)=O)c1 (single isomer, unassigned) [SC-278b] | ≤ 100 nM |
| CS(=O)(=O)c1cccc(NC(=O)c2c(C(F)(F)F)cnn2CC2CCCCC2)c1 [SC-26, 2-(cyclohexylmethyl)-N-(3-methylsulfonylphenyl)-4-(trifluoromethyl)pyrazole-3-carboxamide] | ≤ 100 nM |
| O=C(Nc1cc[nH]c(=O)c1)c1c(C(F)(F)F)cnn1CC1CCCCC1 [SC-30, 1-(cyclohexylmethyl)-N-(2-oxo-1,2-dihydropyridin-4-yl)-4-(trifluoromethyl)-1H-pyrazole-5-carboxamide] | 100 to 1000 nM |
| Cc1c(C(C)(F)F)nn(CC2(C)CCCCO2)c1C(=O)Nc1ccnc(S(N)(=O)=O)c1 (single isomer, unassigned) [SC-312a] | 100 to 1000 nM |
| CCc1nn(CC2CC(F)(F)C2)c(C(=O)Nc2ccnc(C(N)=O)c2)c1C(F)(F)F [SC-172, 4-(1-((3,3-difluorocyclobutyl)methyl)-3-ethyl-4-(trifluoromethyl)-1H-pyrazole-5-carboxamido)picolinamide] | ≤ 100 nM |
| NC(=O)c1cc(NC(=O)c2c(C(F)(F)F)c(C3CC3)nn2CC2CC(C(F)F)C2)ccn1 (single isomer, unassigned) [SC-221b, 4-(3-cyclopropyl-1-((3-(difluoromethyl)cyclobutyl)methyl)-4-(trifluoromethyl)-1H-pyrazole-5-carboxamido)picolinamide] | ≤ 100 nM |
| Cc1nn(CC2CCC(F)(F)CC2)c(C(=O)Nc2ccnc(C(N)=O)c2)c1C(F)(F)F [SC-84, 4-(1-((4,4-difluorocyclohexyl)methyl)-3-methyl-4-(trifluoromethyl)-1H-pyrazole-5-carboxamido)picolinamide] | ≤ 100 nM |

More lines, now with the values ahead:

| IC50 | SMILES |
| --- | --- |
| ≤ 100 nM | Cc1nn(CC2CCCCC2)c(C(=O)Nc2cccc(S(N)(=O)=O)c2)c1C(F)(F)F [SC-244, 1-(cyclohexyimethyl)-3-methyl-N-(3-sulfamoylphenyl)-4-(trifluoromethyl)-1H-pyrazole-5-carboxamide] |
| ≤ 100 nM | CS(=O)(=O)c1cccc(NC(=O)c2c(C(F)(F)F)cnn2CC2CCCCCC2)c1 [SC-27, 2-(cycloheptylmethyl)-N-(3-methylsulfonylphenyl)-4-(trifluoromethyl)pyrazole-3-carboxamide] |
| 1000 to 10000 nM | NC(=O)c1cc(NC(=O)c2c(OCC(F)(F)F)c(C3CC3)nn2CC2CCC(F)(F)C2)ccn1 (centres unmarked) [SC-298, 4-(3-cyclopropyl-1-((3,3-difluorocyclopentyl)methyl)-4-(2,2,2-trifluoroethoxy)-1H-pyrazole-5-carboxamido)picolinamide] |
| 100 to 1000 nM | CS(=O)(=O)c1cc(NC(=O)c2c(C(F)(F)F)c(C3CC3)nn2CC2CCCO2)ccn1 (centres unmarked) [SC-263, 3-cyclopropyl-N-(2-(methylsulfonyl)pyridin-4-yl)-1-((tetrahydrofuran-2-yl)methyl)-4-(trifluoromethyl)-1H-pyrazole-5-carboxamide] |
| ≤ 100 nM | NC(=O)c1cc(NC(=O)c2c(C(F)(F)F)c(OC(F)F)nn2C[C@@H]2CCC(F)(F)C2)ccn1 [SC-158R] |
| ≤ 100 nM | CS(=O)(=O)c1cc(NC(=O)c2c(C(F)F)c(C3CC3)nn2CC2CCOCC2)ccn1 [SC-153, 3-cyclopropyl-4-(difluoromethyl)-N-(2-(methylsulfonyl)pyridin-4-yl)-1-((tetrahydro-2H-pyran-4-yl)methyl)-1H-pyrazole-5-carboxamide] |
| 100 to 1000 nM | Cc1c(C(C)(F)F)nn(CC2(F)CC2)c1C(=O)Nc1ccnc(S(N)(=O)=O)c1 [SC-310, 3-(1,1-difluoroethyl)-1-((1-fluorocyclopropyl)methyl)-4-methyl-N-(2-sulfamoylpyridin-4-yl)-lH-pyrazole-5-carboxamide] |
| 100 to 1000 nM | COC1CC(Cn2nc(C3CC3)c(C(F)(F)F)c2C(=O)Nc2ccnc(C(N)=O)c2)C1 (single isomer, unassigned) [SC-281b] |
| ≤ 100 nM | CS(=O)(=O)c1cc(NC(=O)c2c(C(F)(F)F)c(C3CC3)nn2CC2CCCCO2)ccn1 (single isomer, unassigned) [SC-259b] |
| ≤ 100 nM | NC(=O)c1cc(NC(=O)c2c(C(F)(F)F)c(C3CC3)nn2CC2CCC(F)(F)C2)ccn1 (single isomer, unassigned) [SC-129b] |
| ≤ 100 nM | CS(=O)(=O)c1cc(NC(=O)c2c(C(F)(F)F)c(C3CC3)nn2CC2CCC(F)(F)C2)ccn1 (single isomer, unassigned) [SC-277a] |
| 1000 to 10000 nM | Cc1nn(CC2CCC(F)(F)CC2)c(C(=O)Nc2ccnc(C(N)=O)c2C)c1C(F)(F)F [SC-294, 4-(1-((4,4-difluorocyclohexyl)methyl)-3-methyl-4-(trifluoromethyl)-1H-pyrazole-5-carboxamido)-3-methylpicolinamide] |
